Data published in patent US20250059188A1, “ARYLSULPHONAMIDE COMPOUNDS” (Anaxis Pharma Pty Ltd, priority 2021, published 2025).

What was measured:
U937 cells = test: Counter screen: U937 cell viability without TSQ cocktail (off-target effect); parameters: species or system human; conditions: Homo sapiens, U-937, compound without TSQ cocktail, read-out: Off-target effect (IC50 cell-based assay)
Procedure, shortened: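 Off-target viability counter screen: compounds titrated 36 μM down 1:3 over 10 points (0.3% DMSO) on 20,000 U937 cells/well, no TNF/Smac mimetic/Q-VD-OPh added, 48 h incubation. ATP-based CellTiter-Glo luminescence, four-parameter logistic IC50.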

human RIPK3 = human RIPK3 (Homo sapiens (Human), UniProt Q9Y572); test: KINOMEscan binding assay, human RIPK3; conditions: equilibrium dissociation constant
Procedure, shortened: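 Kd values come from dose-response fits to the Hill equation (Hill slope −1, Levenberg–Marquardt least squares). Compound competed with bead-bound ligand for tagged kinase, and remaining kinase was measured by qPCR after elution. Dilution series: 11 points, 3-fold, 1% DMSO final, top 30,000 nM in most runs.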

human RIPK3, sequence (Q9Y572 whole entry): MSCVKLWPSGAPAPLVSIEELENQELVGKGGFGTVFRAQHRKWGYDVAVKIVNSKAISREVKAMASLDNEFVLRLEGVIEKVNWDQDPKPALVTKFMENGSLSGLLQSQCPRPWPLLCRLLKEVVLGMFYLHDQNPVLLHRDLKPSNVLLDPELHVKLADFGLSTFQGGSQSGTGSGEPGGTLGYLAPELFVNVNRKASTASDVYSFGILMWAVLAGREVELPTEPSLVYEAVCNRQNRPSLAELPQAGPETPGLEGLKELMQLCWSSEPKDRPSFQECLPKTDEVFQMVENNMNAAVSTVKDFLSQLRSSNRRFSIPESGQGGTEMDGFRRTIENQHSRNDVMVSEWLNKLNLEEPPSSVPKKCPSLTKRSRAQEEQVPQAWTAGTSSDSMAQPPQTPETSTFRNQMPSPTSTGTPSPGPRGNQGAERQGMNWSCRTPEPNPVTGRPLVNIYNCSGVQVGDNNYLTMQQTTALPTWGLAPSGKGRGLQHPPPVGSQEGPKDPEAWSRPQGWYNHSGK

| SMILES | Kd (human RIPK3) | IC50 (U937 cells) |
| --- | --- | --- |
| C[C@H](Oc1cc(-c2nn(C)c3c(-c4cnn(C5CC6(C5)CN(C)C6)c4)cnc(N)c23)ccc1NS(=O)(=O)C(F)F)c1ccc(F)cc1 [Compound 99, (S)-N-(4-(4-amino-1-methyl-7-(1-(2-methyl-2-azaspiro[3.3]heptan-6-yl)-1H-pyrazol-4-yl)-1H-pyrazolo[4,3-c]pyridin-3-yl)-2-(1-(4-fluorophenyl)ethoxy)phenyl)-1,1-difluoromethanesulfonamide] | > 10 µM | > 10 µM |
| C[C@H](Oc1cc(-c2nn(C)c3c(-c4cnn(C5CCN(C)C6(CC6)C5)c4)cnc(N)c23)ccc1NS(=O)(=O)C(F)F)c1ccc(F)cc1 (stereo partly drawn) [Compound 145, N-(4-(4-amino-1-methyl-7-(1-(4-methyl-4-azaspiro[2.5]octan-7-yl)-1H-pyrazol-4-yl)-1H-pyrazolo[4,3-c]pyridin-3-yl)-2-((S)-1-(4-fluorophenyl)ethoxy)phenyl)-1,1-difluoromethanesulfonamide] | > 10 µM | > 10 µM |
| C[C@H](Oc1cc(-c2nn(C)c3c(-c4cnn(C5CCOCC5)c4)cnc(N)c23)ccc1NS(=O)(=O)C(F)F)c1cccc(Cl)c1 [Compound 122, (S)-N-(4-(4-amino-1-methyl-7-(1-(tetrahydro-2H-pyran-4-yl)-1H-pyrazol-4-yl)-1H-pyrazolo[4,3-c]pyridin-3-yl)-2-(1-(3-chlorophenyl)ethoxy)phenyl)-1,1-difluoromethanesulfonamide] | > 10 µM | > 10 µM |
| C[C@H](Oc1cc(-c2nn(C)c3c(-c4cnn(C5CCC(C)(C)N(C)C5)c4)cnc(N)c23)ccc1NS(=O)(=O)C(F)F)c1ccc(F)cc1 (stereo partly drawn) [Compound 104, N-(4-{4-amino-1-methyl-7-[1-(1,6,6-trimethylpiperidin-3-yl)-1H-pyrazol-4-yl]-1H-pyrazolo[4,3-c]pyridin-3-yl}-2-[(1 S)-1-(4-fluorophenyl)ethoxy]phenyl)-1,1-difluoromethanesulfonamide] | > 10 µM | > 10 µM |
| C[C@H](Oc1cc(-c2nn(C)c3c(-c4cnn(C5CCC(F)(F)C5)c4)cnc(N)c23)ccc1NS(=O)(=O)C(F)F)c1ccc(F)cc1 (stereo partly drawn) [Compound 120, N-(4-{4-amino-7-[1-(3,3-difluorocyclopentyl)-1H-pyrazol-4-yl]-1-methyl-1H-pyrazolo[4,3-c]pyridin-3-yl}-2-[(1S)-1-(4-fluorophenyl)ethoxy]phenyl)-1,1-difluoromethanesulfonamide] | > 10 µM | > 10 µM |
| C[C@H](Oc1cc(-c2nn(C)c3c(-c4cnn(C5CCC(F)(F)CC5)c4)cnc(N)c23)ccc1NS(=O)(=O)C(F)F)c1ccc(F)cc1 [Compound 146, (S)-N-(4-(4-amino-7-(1-(4,4-difluorocyclohexyl)-1H-pyrazol-4-yl)-1-methyl-1H-pyrazolo[4,3-c]pyridin-3-yl)-2-(1-(4-fluorophenyl)ethoxy)phenyl)-1,1-difluoromethanesulfonamide] | > 10 µM | > 10 µM |
| C[C@@H](Oc1cc(-c2nn(C)c3c(-c4cnn(C5CCOCC5)c4)cnc(N)c23)ccc1NS(=O)(=O)C(F)F)c1ccc(F)cc1 [Compound 121, (R)-N-(4-(4-amino-1-methyl-7-(1-(tetrahydro-2H-pyran-4-yl)-1H-pyrazol-4-yl)-1H-pyrazolo[4,3-c]pyridin-3-yl)-2-(1-(4-fluorophenyl)ethoxy)phenyl)-1,1-difluoromethanesulfonamide] | > 10 µM | > 10 µM |
| CC(=O)N1CCC(n2cc(-c3cnc(N)c4c(-c5ccc(NS(=O)(=O)C(F)F)c(O[C@@H](C)c6ccc(F)cc6)c5)nn(C)c34)cn2)CC1 [Compound 109, (S)—N-(4-(7-(1-(1-acetylpiperidin-4-yl)-1H-pyrazol-4-yl)-4-amino-1-methyl-1H-pyrazolo[4,3-c]pyridin-3-yl)-2-(1-(4-fluorophenyl)ethoxy)phenyl)-1,1-difluoromethanesulfonamide] | > 10 µM | > 10 µM |
| C[C@H](Oc1cc(-c2nn(C)c3c(-c4cnn(C(C)(C)CO)c4)cnc(N)c23)ccc1NS(=O)(=O)C(F)F)c1ccc(F)cc1 [Compound 97, (S)-N-(4-(4-amino-7-(1-(1-hydroxy-2-methylpropan-2-yl)-1H-pyrazol-4-yl)-1-methyl-1H-pyrazolo[4,3-c]pyridin-3-yl)-2-(1-(4-fluorophenyl)ethoxy)phenyl)-1,1-difluoromethanesulfonamide] | > 10 µM | > 10 µM |

Further lines, with some results ahead:

| Kd (human RIPK3) | SMILES | IC50 (U937 cells) |
| --- | --- | --- |
| > 10 µM | C[C@H](Oc1cc(-c2nn(C)c3c(-c4cnn(C5CCN(C)CC5)c4)cnc(N)c23)ccc1NS(=O)(=O)C(F)F)c1ccc(F)cc1 [Compound 46, (S)-N-(4-(4-amino-1-methyl-7-(1-(1-methylpiperidin-4-yl)-1H-pyrazol-4-yl)-1H-pyrazolo[4,3-c]pyridin-3-yl)-2-(1-(4-fluorophenyl)ethoxy)phenyl)-1,1-difluoromethanesulfonamide] | 1 to 10 µM |
| > 10 µM | C[C@H](Oc1cc(-c2nn(C)c3c(-c4cnn(C5CC(C)(C)N(C)C(C)(C)C5)c4)cnc(N)c23)ccc1NS(=O)(=O)C(F)F)c1ccc(F)cc1 [Compound 162, (S)-N-(4-(4-amino-1-methyl-7-(1-(1,2,2,6,6-pentamethylpiperidin-4-yl)-1H-pyrazol-4-yl)-1H-pyrazolo[4,3-c]pyridin-3-yl)-2-(1-(4-fluorophenyl)ethoxy)phenyl)-1,1-difluoromethanesulfonamide] | > 10 µM |
| > 10 µM | CC(n1cc(-c2cnc(N)c3c(-c4ccc(NS(=O)(=O)C(F)F)c(O[C@@H](C)c5ccc(F)cc5)c4)nn(C)c23)cn1)C(F)(F)F (stereo partly drawn) [Compound 142, N-(4-(4-amino-1-methyl-7-(1-(1,1,1-trifluoropropan-2-yl)-1H-pyrazol-4-yl)-1H-pyrazolo[4,3-c]pyridin-3-yl)-2-((S)-1-(4-fluorophenyl)ethoxy)phenyl)-1,1-difluoromethanesulfonamide] | > 10 µM |
| > 10 µM | C[C@H](Oc1cc(-c2nn(C)c3c(-c4cnn(C5CCN(C)C(C)(C)C5)c4)cnc(N)c23)ccc1NS(=O)(=O)C(F)F)c1ccc(F)cc1 (single isomer, unassigned) [Compound 154, N-(4-(4-amino-1-methyl-7-(1-((R*)-1,2,2-trimethylpiperidin-4-yl)-1H-pyrazol-4-yl)-1H-pyrazolo[4,3-c]pyridin-3-yl)-2-((S)-1-(4-fluorophenyl)ethoxy)phenyl)-1,1-difluoromethanesulfonamide] | > 10 µM |
| > 10 µM | C[C@H](Oc1cc(-c2nn(C)c3c(-c4cnn(C5CCCC5)c4)cnc(N)c23)ccc1NS(=O)(=O)C(F)F)c1ccc(F)cc1 [Compound 30, (S)-N-(4-(4-amino-7-(1-cyclopentyl-1H-pyrazol-4-yl)-1-methyl-1H-pyrazolo[4,3-c]pyridin-3-yl)-2-(1-(4-fluorophenyl)ethoxy)phenyl)-1,1-difluoromethanesulfonamide] | > 10 µM |
| > 10 µM | C[C@H](Oc1cc(-c2nn(C)c3c(-c4cnn(C5CCN(C)C(C)(C)C5)c4)cnc(N)c23)ccc1NS(=O)(=O)C(F)F)c1ccc(F)cc1 (single isomer, unassigned) [Compound 113] | > 10 µM |
